Source: patent US7893252B2, “Selectively depolymerized galactomannan polysaccharide” (priority 2003, dated 2011)
“Also recorded” adds a separate entry of the source.

Tests used:
[1] = tested on: COLO 205 human colon tumor xenografts; experiment: Efficacy and compatibility with leucovorin in COLO 205 human colon tumor xenografts, q4d×4 (Example 4)
Method: The principal differences with the study described in Example 3 were that (a) the galactomannan was from another source, of a different size (molecular weight) and with a different Man/Gal ratio, (b) there were four consecutive injections, not three, (c) there were four doses of the galactomannan tested, not one, (d) 5-FU was administered (i.v.) in 48 mg/kg/dose, not 75 mg/kg/dose, as in the first study, and (e) galactomannan (i.v. injection) was compared with leucovorin (oral gavage, administered two hours after 5-FU) in terms of efficacy and toxicity. […] 5-FU alone was administered i.v. on the same q4d×4 treatment schedule at dosages of 48 mg/kg/dose. 5-FU was formulated in saline fresh on each day of treatment at a concentration of 4.8 mg/mL, at pH 9.2. […] Leucovorin powder (clinical formulation, Leucovorin calcium for injection) was reconstituted with water for injection to yield a concentration of 10 mg/mL. On each day of treatment the stock solution was diluted with water for injection to yield a concentration of 2.5 mg/mL.
Two more combination-treatment groups were also included in the study. One group of mice was treated with 5-FU (48 mg/kg/dose, i.v., q4d×4), followed by oral gavage (p.o.) with leucovorin, administered two hours after 5-FU at a dosage of 25 mg/kg/dose. Another two groups of mice were treated with 5-FU in a combination with the galactomannan (48 mg/kg/dose and 120 mg/kg/dose, respectively, i.v., q4d×4), followed by p.o. leucovorin treatment, administered at a dosage of 25 mg/kg/dose two hours after 5-FU plus the galactomannan.
There were a total of nine groups of 10 animals each, s.c.-implanted with COLO 205 human colon tumor xenografts.

[2] = tested on: human colon tumor COLO 205; experiment: Efficacy study in COLO 205 human colon tumor xenografts, q4d×3 (Example 3); details: i.v. q4d×3, 5-FU 75 mg/kg/dose, GM 120 mg/kg/dose
Method: The both studies were conducted as follows.
5-FU alone was administered i.v. on the same q4d×3 treatment schedule at doses of 75 mg/kg/dose (225 mg/m2/dose). 5-FU was formulated in saline fresh on each day of treatment at a concentration of 3.75 mg/mL, at pH 9.2. […] Both individual compounds and their mixture were administered according to exact body weight with injection volume being 0.2 mL/10 g body weight.
There were a total of four groups of 10 animals each, s.c.-implanted with COLO 205 human colon tumor xenografts.

mice = experiment: Acute toxicology, single IV dose in mice; format: in vivo; details: single IV dose; galactomannan (336 mg/m2), 112 mg/kg (336 mg/m2); combination 417/222 mg/kg (1251/666 mg/m2); n=5/group
Method: Acute toxicology studies of the galactomannan of the present invention were performed in mice, rats and dogs and subchronic toxicology studies were performed in rats and dogs. The following is a summary of the findings of these studies: […]

[3] = tested on: Salmonella typhimurium strains TA97a, TA98, TA100, TA1535 and Escherichia coli strain WP2 uvrA (pKM101); experiment: Ames bacterial reverse mutation assays; format: cell-based; details: in the presence and absence of an exogenous metabolic activation system
Method: Mutagenicity studies were conducted and included two Ames bacterial reverse mutation assays in which the galactomannan of the invention was evaluated by itself in the first study and combined with 5-FU in the second study. The test articles in both studies were evaluated in bacterial assays using Salmonella typhimurium strains TA97a, TA98, TA100, TA1535 and Escherichia coli strain WP2 uvrA (pKM101), both in the presence and absence of an exogenous metabolic activation system.

dogs = experiment: Acute toxicology, single IV injection in dogs; format: in vivo; details: 5-FU 28.5 mg/kg, galactomannan 15 mg/kg, combination 28.5/15 mg/kg
Method: Acute toxicology studies of the galactomannan of the present invention were performed in mice, rats and dogs and subchronic toxicology studies were performed in rats and dogs. The following is a summary of the findings of these studies:
The surviving dogs remained clinically normal and had no treatment-related changes in body weight, feed consumption, ECG tracings, clinical pathology or gross tissue changes during the 21-day study period.

[4] = i.v. q4d×4, 5-FU 48 mg/kg/dose, GM 120 mg/kg/dose

Substance: (((1,4)-linked β-D-mannopyranose)17-((1,6)-linked-β-D-galactopyranose)10)12) [GM]
- tumor growth delay / tumor regression after 13 days ([1]; GM 120 mg/kg/dose alone, q4d×4): did not delay growth; also recorded: No tumor regression
- median to quadrupling of tumor volume [1, 4]: 6.9 days
- median tumor volume after 13 days [1, 4]: 1152 mm3
- mean survival time [2]: 19.2 days
- median to quadrupling of tumor volume [2]: 15.5 days
- median tumor volume after 56 days of the study [2]: 1813 mm3
- tolerability [2]: well tolerated
- tumor regression after 56 days of the study [2]: no tumor regression
- treatment-related deaths ([2]; 10 mice per group, within two weeks): No deaths
- clinical signs of toxicity, death or decreased weight gain (mice): no clinical signs of toxicity, death or decreased weight gain
- mutagenic activity ([3]; listed as galactomannan): not mutagenic
- mutagenic activity ([3]; listed as galactomannan of the invention): No evidence of mutagenic activity
- death (dogs): 0/2
